Assay results from PMC2375353, “Effective treatment of experimental U-87MG human glioblastoma in nude mice with a targeted cytotoxic bombesin analogue, AN-215” (British Journal of Cancer, 2002).
“Also recorded” adds a separate entry of the source.

What was measured:
[1] = biological target: BN/GRP receptor on U-87MG tumour membranes; assay: Displacement of 125I-[Tyr4]BN binding (radioreceptor assay) on U-87MG tumour membranes; design: species or system human
Protocol: (§1) Binding characteristics of BN receptors on membrane preparations from U-87MG tumours were determined by ligand competition assays using ^125I-labelled [Tyr^4]BN, as reported earlier ([Halmos and Schally, 1997]). […] IC50 value was calculated with a computerized curve fitting programme and is defined as the concentration of AN-215 causing a 50% inhibition of ^125I-[Tyr^4]BN binding.

[2] = tested on: BN receptors on membrane preparations from U-87MG tumours; assay: 125I-[Tyr4]BN binding characteristics (Kd, Bmax) of BN receptors on U-87MG tumour membranes; design: species or system human; settings: AN-215-treated vs control
Protocol: as §1

[3] = tested on: U-87MG human glioblastoma xenografted into nude mice; assay: Experiment 2: growth of s.c. U-87MG xenografts, with BN receptor blockade; format: in vivo, human tumour in male athymic nude mice
Protocol: Human glioblastoma cell line U-87MG was obtained from American Type Culture Collection (Manassas, VA, USA) and cultured as described ([Pinski et al, 1994]). Male athymic (Ncr nu/nu) nude mice, approximately 6-weeks-old on arrival, were obtained from the National Cancer Institute (Frederick Cancer Research and Development Center, Frederick, MD, USA), and housed in laminar air-flow cabinets under pathogen-free conditions with a 12 h light/12 h dark schedule, and fed autoclaved standard chow and water ad libitum. Xenografts were initiated by s.c. injection of 12×10^6 U-87MG cells into the right flanks of five male nude mice. Tumours resulting after 2 weeks were aseptically dissected, mechanically minced, and 3-mm^3 pieces of tumour tissue were transplanted s.c. with a trocar needle. The take rate was 100%. All experiments were performed in accordance with institutional ethical guidelines of animal care and were essentially in agreement with [UKCCCR guidelines (1998)] for the welfare of animals in experimental neoplasia.
Experiment 2 was started when U-87MG tumours had grown to 70–84 mm^3 in volume. The animals were divided into the following treatment groups: group 1 (10 mice), control, vehicle solution; group 2 (10 mice), analogue AN-215; group 3 (five mice), unconjugated mixture of the cytotoxic radical AN-201 and BN antagonist RC-3095. All compounds were injected i.v. at 150 nmol kg^−1 of BW on days 1, 10, and 17. In addition, one group of tumour-bearing mice received an i.v. injection of 200 μg of BN antagonist RC-3095 15 min before each administration of AN-215 at a dose of 150 nmol kg^−1 of BW on days 1, 10 and 17 as in the case of group 2. The experiment was terminated on day 20 as described above.
Data are expressed as mean±s.e. Differences between mean values were evaluated by two-tailed Student's t-test, P<0.05 being considered significant.

[4] = RC-3095 200 μg/mouse i.v. 15 min before AN-215 150 nmol kg^-1 days 1, 10, 17

Substance: Gln-Trp-Ala-Val-Gly-His-Leu-ψ(CH2-NH)-Leu-NH2 [AN-215]
- IC50 ([1]; U-87MG tumour membranes, AN-215 10^-6–10^-12 M, mean±s.e., read-out: IC50, inhibition of specific 125I-[Tyr4]BN binding): 4 ± 0.1 nM
- Binding affinity to BN/GRP receptor protein ([1]; U-87MG tumours): high binding affinity
- Effect of treatment on binding characteristics of receptors for BN/GRP [2]: did not affect the binding characteristics
- Tumour doubling time ([3]; 150 nmol kg^-1 i.v. days 1, 10, 17, 20 days, no pretreatment, control 4.5±0.2): 6.6 ± 1.0 days
- Antitumour effect after BN receptor blockade ([3]; RC-3095 200 μg i.v. 15 min before AN-215 150 nmol kg^-1): could be blocked by pretreatment with an excess of a bombesin antagonist; also recorded: non-significant growth inhibition of U-87MG glioblastomas
- Growth inhibition after RC-3095 pretreatment [3, 4]: 22%
- Tumour doubling time after RC-3095 pretreatment [3, 4]: 4.7 ± 02 days
